Columns and labels:
Type in all cases: cell-based
[1] = molecular target: Indoleamine 2,3-dioxygenase 1 (Homo sapiens) (UniProt P14902); experiment: Inhibition of human IDO1 expressed in HEK293-EBNA cells assessed as reduction in kynurenine formation using tryptophan as substrate at 6.25 uM incubated for 24 hrs by HPLC analysis relative to control
[2] = molecular target: Tryptophan 2,3-dioxygenase (Homo sapiens) (UniProt P48775); experiment: Inhibition of human TDO expressed in HEK293-EBNA cells assessed as reduction in kynurenine formation using tryptophan as substrate at 12.5 uM incubated for 24 hrs by HPLC analysis relative to control
Sequence of Tryptophan 2,3-dioxygenase (Homo sapiens) (P48775 whole entry, looked up): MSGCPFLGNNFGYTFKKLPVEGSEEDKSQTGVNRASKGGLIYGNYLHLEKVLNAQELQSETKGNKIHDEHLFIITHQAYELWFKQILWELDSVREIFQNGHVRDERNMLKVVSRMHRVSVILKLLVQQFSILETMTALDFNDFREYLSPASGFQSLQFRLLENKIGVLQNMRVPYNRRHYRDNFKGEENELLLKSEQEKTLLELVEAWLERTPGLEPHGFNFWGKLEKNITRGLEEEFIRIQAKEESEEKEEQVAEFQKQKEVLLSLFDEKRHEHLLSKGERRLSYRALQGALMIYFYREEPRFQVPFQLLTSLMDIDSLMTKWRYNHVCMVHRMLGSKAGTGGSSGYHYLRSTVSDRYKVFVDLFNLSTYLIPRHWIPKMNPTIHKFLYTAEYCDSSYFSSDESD

[3] = molecular target: Tryptophan 2,3-dioxygenase (Homo sapiens) (UniProt P48775); experiment: Inhibition of human TDO expressed in HEK293-EBNA cells assessed as reduction in kynurenine formation using tryptophan as substrate at 3.12 uM incubated for 24 hrs by HPLC analysis relative to control
[4] = molecular target: Indoleamine 2,3-dioxygenase 1 (Homo sapiens) (UniProt P14902); experiment: Inhibition of human IDO1 expressed in HEK293-EBNA cells assessed as reduction in kynurenine formation using tryptophan as substrate at 12.5 uM incubated for 24 hrs by HPLC analysis relative to control
[5] = molecular target: Indoleamine 2,3-dioxygenase 1 (Homo sapiens) (UniProt P14902); experiment: Inhibition of human IDO1 expressed in HEK293-EBNA assessed as reduction in kynurenine formation using tryptophan as substrate at 3.12 uM incubated for 24 hrs by HPLC analysis relative to control
[6] = Cytotoxicity against human HEK293-EBNA cells assessed as cell viability at 3.12 uM by MTS/PMS assay; conditions: read-out: Activity
[7] = Cytotoxicity against human HEK293-EBNA cells assessed as cell viability at 25 uM by MTS/PMS assay; conditions: read-out: Activity
[8] = molecular target: Indoleamine 2,3-dioxygenase 1 (Homo sapiens) (UniProt P14902); experiment: Inhibition of human IDO1 expressed in HEK293-EBNA cells assessed as reduction in kynurenine formation using tryptophan as substrate at 25 uM incubated for 24 hrs by HPLC analysis relative to control
[9] = molecular target: Tryptophan 2,3-dioxygenase (Homo sapiens) (UniProt P48775); experiment: Inhibition of human TDO expressed in HEK293-EBNA cells assessed as reduction in kynurenine formation using tryptophan as substrate at 6.25 uM incubated for 24 hrs by HPLC analysis relative to control
[10] = molecular target: Tryptophan 2,3-dioxygenase (Homo sapiens) (UniProt P48775); experiment: Inhibition of human TDO expressed in HEK293-EBNA cells assessed as reduction in kynurenine formation using tryptophan as substrate at 25 uM incubated for 24 hrs by HPLC analysis relative to control
[11] = Cytotoxicity against human HEK293-EBNA cells assessed as cell viability at 6.25 uM by MTS/PMS assay; conditions: read-out: Activity
[12] = Cytotoxicity against human HEK293-EBNA cells assessed as cell viability at 12.5 uM by MTS/PMS assay; conditions: read-out: Activity

Sequence of Indoleamine 2,3-dioxygenase 1 (Homo sapiens) (P14902 whole entry, looked up): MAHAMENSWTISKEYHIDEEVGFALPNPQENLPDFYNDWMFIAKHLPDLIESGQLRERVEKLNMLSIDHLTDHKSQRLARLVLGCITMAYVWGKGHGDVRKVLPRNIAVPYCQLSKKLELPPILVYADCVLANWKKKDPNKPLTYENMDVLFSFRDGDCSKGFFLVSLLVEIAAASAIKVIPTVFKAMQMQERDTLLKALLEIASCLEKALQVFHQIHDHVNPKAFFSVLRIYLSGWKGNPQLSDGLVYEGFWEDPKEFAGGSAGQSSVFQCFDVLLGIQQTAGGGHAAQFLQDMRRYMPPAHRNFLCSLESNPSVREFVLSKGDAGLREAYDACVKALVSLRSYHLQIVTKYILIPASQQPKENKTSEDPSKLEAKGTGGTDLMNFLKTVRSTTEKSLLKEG

| SMILES | inhibition [1] [%] | inhibition [2] [%] | inhibition [3] [%] | inhibition [4] [%] | inhibition [5] [%] | viability at 3.12 µM [6] [%] | viability at 25 µM [7] [%] | inhibition [8] [%] | inhibition [9] [%] | inhibition [10] [%] | viability at 6.25 µM [11] [%] | viability at 12.5 µM [12] [%] |
| --- | --- | --- | --- | --- | --- | --- | --- | --- | --- | --- | --- | --- |
| Cc1ccc(S(=O)(=O)n2ccc3c2C(=O)c2c(-c4c[nH]c5ccccc45)cn(C)c2C3=O)cc1 | 20 | -1 | 2 | 26 | 12 | 100 | 95 | 28 | 2 | -8 | 98 | 97 |
| Cc1ccc(S(=O)(=O)n2ccc3c2C(=O)c2[nH]c(C(=O)c4c[nH]c5ccccc45)c(C(=O)c4c[nH]c5ccccc45)c2C3=O)cc1 | 22 | -2 | -1 | 25 | 16 | 87 | 75 | 24 | 1 | -9 | 81 | 82 |
| Cc1ccc(S(=O)(=O)n2cc3c4c2C(=O)c2cn[nH]c2C4=NCC3)cc1 | 12 | 23 | 15 | 15 | 10 | 87 | 93 | 11 | 19 | 15 | 106 | 110 |
| O=C1c2c[nH]nc2C2=NCCc3c[nH]c1c32 | 2 | 8 | 6 | 0 | 2 | 93 | 90 | -1 | 8 | 9 | 92 | 91 |
| Cc1ccc(S(=O)(=O)n2cc3c4c2C(=O)c2c(cnn2C)C4=NCC3)cc1 | 16 | 21 | 3 | 23 | 11 | 93 | 78 | 36 | 18 | 35 | 89 | 77 |
| Cc1ccc(S(=O)(=O)n2ccc3c2C(=O)c2c(c(-c4c[nH]c5ccccc45)cn2C)C3=O)cc1 | 12 | 0 | 2 | 21 | 8 | 98 | 88 | 27 | 3 | -3 | 96 | 96 |
| Cc1ccc(S(=O)(=O)n2cc3c4c2C(=O)c2[nH]nc(N5C(=O)C(O)c6ccccc65)c2C4=NCC3)cc1 (centres undefined) | 3 | 6 | -7 | 1 | 1 | 104 | 31 | 14 | 5 | 27 | 107 | 84 |
| Cc1ccc(S(=O)(=O)n2ccc3c2C(=O)C(NCCc2c[nH]c4ccccc24)=CC3=O)cc1 | 9 | 0 | -8 | 13 | 2 | 98 | 84 | 11 | -3 | 0 | 98 | 99 |
| Cc1ccc(S(=O)(=O)n2cc3c4c2C(=O)c2c(-c5ccccc5)n[nH]c2C4=NCC3)cc1 | 19 | 18 | 10 | 22 | 14 | 91 | 96 | 23 | 13 | 21 | 126 | 123 |
| Cc1ccc(S(=O)(=O)n2ccc3c2C(=O)c2[nH]cc4c2C3=NCC4)cc1 | -3 | -6 | -7 | -4 | 0 | 107 | 115 | -3 | -7 | 3 | 98 | 110 |
| Cc1ccc(S(=O)(=O)n2ccc3c2C(=O)c2[nH]c(C(=O)c4ccccc4)c(C(=O)c4ccccc4)c2C3=O)cc1 | 58 | 55 | 15 | 62 | 52 | 99 | 111 | 61 | 27 | 28 | 125 | 102 |
| Cc1ccc(S(=O)(=O)n2cc3c4c2C(=O)c2n[nH]cc2C4=NCC3)cc1 | 9 | 13 | 12 | 9 | 10 | 92 | 91 | 6 | 14 | 7 | 91 | 97 |
| O=C1c2[nH]cc3c2C(=NCC3)c2c(-c3ccccc3)n[nH]c21 | 4 | 6 | 3 | 5 | 4 | 93 | 84 | 5 | 5 | 5 | 93 | 94 |
| Cc1ccc(S(=O)(=O)n2ccc3c2C(=O)c2c4c(cn2S(=O)(=O)c2ccc(C)cc2)CCN=C34)cc1 | – | – | – | – | – | 87 | 67 | – | – | – | 88 | 85 |
| Cc1ccc(S(=O)(=O)n2cc3c4c2C(=O)c2[nH]nc(-c5ccccc5)c2C4=NCC3)cc1 | 12 | 2 | 5 | 16 | 10 | 91 | 78 | 18 | 5 | -10 | 95 | 79 |
| Cc1ccc(S(=O)(=O)n2ccc3c2C(=O)C=C(NCCc2c[nH]c4ccccc24)C3=O)cc1 | 28 | 31 | 5 | 38 | 23 | 75 | 26 | 39 | 12 | 67 | 69 | 56 |

Source: ChEMBL document CHEMBL4819048, “IDO1 and TDO inhibitory evaluation of analogues of the marine pyrroloiminoquinone alkaloids: Wakayin and Tsitsikammamines” (Bioorg Med Chem Lett, 2021)
